Measurements: US12083124B2 (Incyte Corporation, priority 2019, dated 2024)
Where two headings read alike, the source gives them in different places.

Legend:
[1] = target: wild-type un-phosphorylated FGFR3 (Homo sapiens, UniProt P22607); assay: FGFR Enzymatic Assay (FRET peptide phosphorylation), FGFR3
[2] = target: wild-type un-phosphorylated FGFR1 (Homo sapiens, UniProt P11362); assay: FGFR Enzymatic Assay (FRET peptide phosphorylation), FGFR1; details: pre-incubated for 4 hours
Method: The inhibitor potency of the exemplified compounds was determined in an enzyme discontinuous assay that measures peptide phosphorylation using FRET measurements to detect product formation. Inhibitors were serially diluted in DMSO and a volume of 0.2 μL was transferred to the wells of a 384-well plate. […] Appropriate controls (enzyme blank and enzyme with no inhibitor) were included on the plate. […] The 10 μL/well reaction concentration of the peptide substrate was 500 nM whereas the ATP concentration was maintained near or below the ATP Km. The ATP Km values were pre-determined in a separate series of experiments. The reaction plate was incubated at 25° C. for 1 hr and the reactions were ended with the addition of 5 μL/well of quench solution (50 mM Tris, 150 mM NaCl, 0.5 mg/mL BSA, pH 7.8; 45 mM EDTA, 600 nM staurosporin, with Perkin Elmer Lance Reagents at 3.75 nM Eu-antibody PY20 and 180 nM APC-Streptavidin). The plate was allowed to equilibrate for ˜10 minutes at ambient temperature before scanning on a PheraStar plate reader (BMG Labtech) instrument.
Either GraphPad prism or XLfit was used to analyze the data. The IC50 values were derived by fitting the data to a four parameter logistic equation producing a sigmoidal dose-response curve with a variable Hill coefficient. Prism equation: Y=Bottom+(Top-Bottom)/(1+10^((Log IC50-X)*Hill slope)); XLfit equation: Y=(A+((B−A)/(1+((X/C)^D)))) where X is the logarithm of inhibitor concentration and Y is the response.
GraphPad prism3 was used to analyze the data. The IC50 values were derived by fitting the data to the equation for a sigmoidal dose-response with a variable slope. Y=Bottom+(Top-Bottom)/(1+10^((Log IC50-X)*Hill Slope)) where X is the logarithm of concentration and Y is the response.
The data in Table 1 was measured in wild-type un-phosphorylated FGFR1, FGFR2, FGFR3, and FGFR4 proteins.

[3] = target: wild-type un-phosphorylated FGFR4 (Homo sapiens, UniProt P22455); assay: FGFR Enzymatic Assay (FRET peptide phosphorylation), FGFR4
[4] = target: wild-type un-phosphorylated FGFR2 (Homo sapiens, UniProt P21802); assay: FGFR Enzymatic Assay (FRET peptide phosphorylation), FGFR2
[5] = read-out: FGFR1, wild-type un-phosphorylated FGFR1
[6] = FGFR1, wild-type un-phosphorylated FGFR1
[7] = read-out: FGFR2, wild-type un-phosphorylated FGFR2, pre-incubated for 4 hours
[8] = read-out: FGFR4, wild-type un-phosphorylated FGFR4, pre-incubated for 4 hours

wild-type un-phosphorylated FGFR4, sequence (P22455 22-802): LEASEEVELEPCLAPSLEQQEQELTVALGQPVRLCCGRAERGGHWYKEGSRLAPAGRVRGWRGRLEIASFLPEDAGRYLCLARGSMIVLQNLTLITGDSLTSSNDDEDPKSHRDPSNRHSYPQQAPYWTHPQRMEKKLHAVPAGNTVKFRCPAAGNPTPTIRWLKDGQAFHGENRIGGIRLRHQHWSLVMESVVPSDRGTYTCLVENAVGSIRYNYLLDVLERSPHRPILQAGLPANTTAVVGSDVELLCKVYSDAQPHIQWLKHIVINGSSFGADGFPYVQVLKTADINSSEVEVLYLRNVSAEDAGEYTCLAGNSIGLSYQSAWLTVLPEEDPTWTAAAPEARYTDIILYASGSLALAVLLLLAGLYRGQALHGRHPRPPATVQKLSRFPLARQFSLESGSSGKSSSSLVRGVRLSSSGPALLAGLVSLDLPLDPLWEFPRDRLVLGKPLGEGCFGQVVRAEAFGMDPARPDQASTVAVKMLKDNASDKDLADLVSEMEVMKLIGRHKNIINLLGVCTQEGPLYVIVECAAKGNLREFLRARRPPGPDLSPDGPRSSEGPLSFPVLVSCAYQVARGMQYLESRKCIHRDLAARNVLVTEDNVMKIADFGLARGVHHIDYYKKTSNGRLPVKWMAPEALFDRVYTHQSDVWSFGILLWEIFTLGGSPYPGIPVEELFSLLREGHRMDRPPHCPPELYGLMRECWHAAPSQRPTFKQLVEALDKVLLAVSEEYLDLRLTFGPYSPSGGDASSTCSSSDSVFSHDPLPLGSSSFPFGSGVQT
wild-type un-phosphorylated FGFR2, sequence (P21802 22-821): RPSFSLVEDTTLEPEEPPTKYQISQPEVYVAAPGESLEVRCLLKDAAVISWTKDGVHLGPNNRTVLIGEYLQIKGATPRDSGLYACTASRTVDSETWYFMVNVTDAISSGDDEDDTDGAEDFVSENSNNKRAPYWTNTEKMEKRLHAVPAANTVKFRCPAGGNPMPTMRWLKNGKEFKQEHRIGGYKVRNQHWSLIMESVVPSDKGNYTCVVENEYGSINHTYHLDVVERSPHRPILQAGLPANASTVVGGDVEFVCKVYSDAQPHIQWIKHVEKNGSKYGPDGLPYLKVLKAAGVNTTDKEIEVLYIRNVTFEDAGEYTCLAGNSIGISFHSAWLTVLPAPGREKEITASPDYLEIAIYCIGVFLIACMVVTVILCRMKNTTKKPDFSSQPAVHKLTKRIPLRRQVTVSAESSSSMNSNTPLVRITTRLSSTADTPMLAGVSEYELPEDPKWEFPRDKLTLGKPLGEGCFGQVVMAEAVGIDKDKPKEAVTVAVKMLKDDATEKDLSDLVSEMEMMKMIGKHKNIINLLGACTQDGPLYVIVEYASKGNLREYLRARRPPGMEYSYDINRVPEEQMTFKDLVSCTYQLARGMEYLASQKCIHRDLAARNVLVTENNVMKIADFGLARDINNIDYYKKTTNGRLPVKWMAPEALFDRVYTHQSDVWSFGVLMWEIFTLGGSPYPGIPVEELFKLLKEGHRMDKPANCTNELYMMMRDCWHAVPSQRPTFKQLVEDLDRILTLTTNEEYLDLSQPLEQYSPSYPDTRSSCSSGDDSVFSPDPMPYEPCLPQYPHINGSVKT
wild-type un-phosphorylated FGFR3, sequence (P22607 23-806): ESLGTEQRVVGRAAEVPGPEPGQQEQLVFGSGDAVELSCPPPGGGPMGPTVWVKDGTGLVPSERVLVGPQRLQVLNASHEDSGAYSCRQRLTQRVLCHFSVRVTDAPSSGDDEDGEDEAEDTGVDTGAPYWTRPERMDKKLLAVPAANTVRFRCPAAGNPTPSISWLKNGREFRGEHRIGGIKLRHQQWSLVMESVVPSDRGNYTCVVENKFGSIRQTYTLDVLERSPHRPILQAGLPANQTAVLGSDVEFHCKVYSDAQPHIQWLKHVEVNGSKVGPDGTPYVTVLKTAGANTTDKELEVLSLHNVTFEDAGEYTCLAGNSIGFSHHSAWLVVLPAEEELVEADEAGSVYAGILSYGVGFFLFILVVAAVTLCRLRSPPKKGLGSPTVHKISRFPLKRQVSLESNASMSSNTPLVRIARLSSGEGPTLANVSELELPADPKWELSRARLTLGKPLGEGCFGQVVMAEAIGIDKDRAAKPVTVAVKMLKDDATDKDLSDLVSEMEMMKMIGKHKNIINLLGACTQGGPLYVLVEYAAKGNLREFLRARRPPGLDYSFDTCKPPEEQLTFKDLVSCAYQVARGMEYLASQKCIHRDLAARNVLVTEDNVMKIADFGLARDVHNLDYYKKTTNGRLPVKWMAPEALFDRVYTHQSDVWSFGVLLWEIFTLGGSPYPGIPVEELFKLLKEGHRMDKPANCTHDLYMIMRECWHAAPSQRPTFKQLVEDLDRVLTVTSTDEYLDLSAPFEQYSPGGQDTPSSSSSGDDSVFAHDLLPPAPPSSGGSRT
wild-type un-phosphorylated FGFR1, sequence (P11362 22-822): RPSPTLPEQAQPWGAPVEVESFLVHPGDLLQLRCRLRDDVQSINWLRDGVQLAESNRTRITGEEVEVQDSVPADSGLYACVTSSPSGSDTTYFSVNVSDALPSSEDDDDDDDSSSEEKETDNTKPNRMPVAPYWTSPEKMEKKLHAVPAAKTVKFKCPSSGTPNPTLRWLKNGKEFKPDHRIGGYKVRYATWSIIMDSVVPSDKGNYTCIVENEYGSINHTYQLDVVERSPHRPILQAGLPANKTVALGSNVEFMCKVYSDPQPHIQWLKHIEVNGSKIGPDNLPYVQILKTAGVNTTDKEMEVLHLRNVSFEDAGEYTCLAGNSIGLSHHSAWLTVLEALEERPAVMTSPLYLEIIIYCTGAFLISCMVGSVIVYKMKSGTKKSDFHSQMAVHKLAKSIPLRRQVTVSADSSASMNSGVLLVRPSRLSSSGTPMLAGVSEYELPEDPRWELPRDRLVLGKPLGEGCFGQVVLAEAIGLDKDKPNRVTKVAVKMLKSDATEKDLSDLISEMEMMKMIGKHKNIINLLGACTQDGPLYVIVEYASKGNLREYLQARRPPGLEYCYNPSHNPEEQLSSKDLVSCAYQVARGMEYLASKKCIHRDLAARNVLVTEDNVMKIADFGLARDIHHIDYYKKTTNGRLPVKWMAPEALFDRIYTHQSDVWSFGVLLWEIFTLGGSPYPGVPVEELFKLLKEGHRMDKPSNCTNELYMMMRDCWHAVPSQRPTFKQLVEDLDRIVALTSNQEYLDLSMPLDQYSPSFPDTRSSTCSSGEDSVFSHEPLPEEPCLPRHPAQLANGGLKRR

SMILES	IC50 [1] [nM]	IC50 [2, 5] [nM]	IC50 [3] [nM]	IC50 [4] [nM]	IC50 [2, 6] [nM]	IC50 [4, 7] [nM]	IC50 [3, 8] [nM]
COc1cc2[nH]nc(-c3ccc(OC4CCOCC4)nc3)c2nc1-c1cccc2c1CC(O)C2 (centres unmarked) [Example 96, 4-(6-Methoxy-3-(6-((tetrahydro-2H-pyran-4-yl)oxy)pyridin-3-yl)-1H-pyrazolo[4,3-b]pyridin-5-yl)-2,3-dihydro-1H-inden-2-ol]	< 6	–	> 100	–	40 to 100	6 to 40	–
COc1cc2[nH]nc(-c3ccc(N4CCN(C(N)=O)CC4)nc3)c2nc1-c1cccc2c1CCC2 [Example 60, 4-(5-(5-(2,3-Dihydro-1H-inden-4-yl)-6-methoxy-1H-pyrazolo[4,3-b]pyridin-3-yl)pyridin-2-yl)piperazine-1-carboxamide]	< 6	6 to 40	–	< 6	–	–	6 to 40
COc1cc2[nH]nc(-c3ccc(C4CCN(C(=O)[C@H](C)O)CC4)nc3)c2nc1-c1cccc(C)c1C [Example 77, (S)-1-(4-(5-(5-(2,3-Dimethylphenyl)-6-methoxy-1H-pyrazolo[4,3-b]pyridin-3-yl)pyridin-2-yl)piperidin-1-yl)-2-hydroxypropan-1-one]	< 6	–	> 100	< 6	> 100	–	–
COc1cc2[nH]nc(-c3ccc(C4CC4)nc3)c2nc1-c1cccc2c1CC(O)C2 (centres unmarked) [Example 97, 4-(3-(6-Cyclopropylpyridin-3-yl)-6-methoxy-1H-pyrazolo[4,3-b]pyridin-5-yl)-2,3-dihydro-1H-inden-2-ol]	< 6	–	> 100	–	40 to 100	6 to 40	–
Cc1cc2[nH]nc(-c3cnn(C)c3)c2nc1-c1cccc(C)c1C [Example 40, 5-(2,3-Dimethylphenyl)-6-methyl-3-(1-methyl-1H-pyrazol-4-yl)-1H-pyrazolo[4,3-b]pyridine]	< 6	–	> 100	–	> 100	6 to 40	–
COc1cc2[nH]nc(-c3ccc(C4CCC(O)CC4)nc3)c2nc1-c1cccc2c1CCC2C#N (centres unmarked) [Example 113, 4-(3-(6-(4-Hydroxycyclohexyl)pyridin-3-yl)-6-methoxy-1H-pyrazolo[4,3-b]pyridin-5-yl)-2,3-dihydro-1H-indene-1-carbonitrile]	< 6	6 to 40	40 to 100	< 6	–	–	–
CCN1CC(n2cc(-c3n[nH]c4cc(OC)c(-c5cccc6c5CCC6)nc34)cn2)C1 [Example 18, 5-(2,3-Dihydro-1H-inden-4-yl)-3-(1-(1-ethylazetidin-3-yl)-1H-pyrazol-4-yl)-6-methoxy-1H-pyrazolo[4,3-b]pyridine]	< 6	–	> 100	< 6	40 to 100	–	–
COc1cc2[nH]nc(-c3ccc(C4CCN(C(=O)CO)CC4)nc3)c2nc1-c1cccc(C)c1C [Example 78, 1-(4-(5-(5-(2,3-Dimethylphenyl)-6-methoxy-1H-pyrazolo[4,3-b]pyridin-3-yl)pyridin-2-yl)piperidin-1-yl)-2-hydroxyethan-1-one]	< 6	–	> 100	< 6	> 100	–	–
COc1cc2[nH]nc(-c3cnn(C4CN(C(=O)[C@@H]5CCN5C)C4)c3)c2nc1-c1cccc2c1CCC2 [Example 119, (S)-(3-(4-(5-(2,3-Dihydro-1H-inden-4-yl)-6-methoxy-1H-pyrazolo[4,3-b]pyridin-3-yl)-1H-pyrazol-1-yl)azetidin-1-yl)(1-methylazetidin-2-yl)methanone]	< 6	6 to 40	40 to 100	< 6	–	–	–
COc1cc2[nH]nc(-c3cnn(C4CN(C(=O)CN5CCC(O)CC5)C4)c3)c2nc1-c1cccc2c1CCC2 [Example 121, 1-(3-(4-(5-(2,3-Dihydro-1H-inden-4-yl)-6-methoxy-1H-pyrazolo[4,3-b]pyridin-3-yl)-1H-pyrazol-1-yl)azetidin-1-yl)-2-(4-hydroxypiperidin-1-yl)ethan-1-one]	< 6	6 to 40	40 to 100	< 6	–	–	–
CCN1CCN(c2ccc(-c3n[nH]c4cc(OC)c(-c5cccc6c5CCC6)nc34)cc2)CC1 [Example 63, 5-(2,3-Dihydro-1H-inden-4-yl)-3-(4-(4-ethylpiperazin-1-yl)phenyl)-6-methoxy-1H-pyrazolo[4,3-b]pyridine]	< 6	6 to 40	40 to 100	< 6	–	–	–
COc1cc2[nH]nc(-c3ccc(C4CCN(C(=O)CO)CC4)nc3)c2nc1-c1cccc2c1CCC2 [Example 100, 1-(4-(5-(5-(2,3-Dihydro-1H-inden-4-yl)-6-methoxy-1H-pyrazolo[4,3-b]pyridin-3-yl)pyridin-2-yl)piperidin-1-yl)-2-hydroxyethan-1-one]	< 6	6 to 40	–	< 6	–	–	6 to 40
COc1cc2[nH]nc(-c3cnn(C4CN(C)C4)c3)c2nc1-c1cccc2c1CCC2 [Example 17, 5-(2,3-Dihydro-1H-inden-4-yl)-6-methoxy-3-(1-(1-methylazetidin-3-yl)-1H-pyrazol-4-yl)-1H-pyrazolo[4,3-b]pyridine]	< 6	–	> 100	< 6	40 to 100	–	–

Other lines, results leading:

IC50 [1] [nM]	IC50 [2, 5] [nM]	IC50 [3] [nM]	IC50 [4] [nM]	IC50 [2, 6] [nM]	IC50 [4, 7] [nM]	IC50 [3, 8] [nM]	SMILES
< 6	6 to 40	40 to 100	< 6	–	–	–	COc1cc2[nH]nc(-c3cnn([C@H]4CCN(C(=O)[C@H]5COCCN5C)C4)c3)c2nc1-c1cccc2c1CCC2 [Example 138, ((S)-3-(4-(5-(2,3-Dihydro-1H-inden-4-yl)-6-methoxy-1H-pyrazolo[4,3-b]pyridin-3-yl)-1H-pyrazol-1-yl)pyrrolidin-1-yl)((R)-4-methylmorpholin-3-yl)methanone]
< 6	6 to 40	40 to 100	< 6	–	–	–	COc1cc2[nH]nc(-c3cnn(C4CN(C(=O)[C@@H]5CCN5C(C)C)C4)c3)c2nc1-c1cccc2c1CCC2 [Example 142, (S)-(3-(4-(5-(2,3-Dihydro-1H-inden-4-yl)-6-methoxy-1H-pyrazolo[4,3-b]pyridin-3-yl)-1H-pyrazol-1-yl)azetidin-1-yl)(1-isopropylazetidin-2-yl)methanone]
< 6	–	40 to 100	< 6	40 to 100	–	–	COc1cc2[nH]nc(-c3ccc(CN4CCn5ncnc5C4)nc3)c2nc1-c1cccc2c1CCC2 [Example 163, 7-((5-(5-(2,3-Dihydro-1H-inden-4-yl)-6-methoxy-1H-pyrazolo[4,3-b]pyridin-3-yl)pyridin-2-yl)methyl)-5,6,7,8-tetrahydro-[1,2,4]triazolo[1,5-a]pyrazine]
< 6	6 to 40	–	< 6	–	–	6 to 40	COc1cc2[nH]nc(-c3ccc(N4CC(N(C)C(=O)CO)C4)nc3)c2nc1-c1cccc2c1CCC2 [Example 171, N-(1-(5-(5-(2,3-Dihydro-1H-inden-4-yl)-6-methoxy-1H-pyrazolo[4,3-b]pyridin-3-yl)pyridin-2-yl)azetidin-3-yl)-2-hydroxy-N-methylacetamide]
< 6	–	40 to 100	< 6	40 to 100	–	–	COc1cc2[nH]nc(-c3ccc(C4CN(C(=O)[C@H](C)O)C4)nc3)c2nc1-c1cccc2c1CCC2 [Example 177, (S)-1-(3-(5-(5-(2,3-Dihydro-1H-inden-4-yl)-6-methoxy-1H-pyrazolo[4,3-b]pyridin-3-yl)pyridin-2-yl)azetidin-1-yl)-2-hydroxypropan-1-one]
< 6	6 to 40	–	< 6	–	–	6 to 40	COc1cc2[nH]nc(-c3ccc(C4CCC(NC(=O)[C@H](C)O)C4)nc3)c2nc1-c1cccc2c1CCC2 (stereo partly drawn) [Example 156, (2S)-N-(3-(5-(5-(2,3-Dihydro-1H-inden-4-yl)-6-methoxy-1H-pyrazolo[4,3-b]pyridin-3-yl)pyridin-2-yl)cyclopentyl)-2-hydroxypropanamid]
< 6	6 to 40	–	< 6	–	–	6 to 40	COc1cc2[nH]nc(-c3ccc(C45CC4CN(C(=O)CO)C5)nc3)c2nc1-c1cccc2c1CCC2 (centres unmarked) [Example 191A, 1-(1-(5-(5-(2,3-Dihydro-1H-inden-4-yl)-6-methoxy-1H-pyrazolo[4,3-b]pyridin-3-yl)pyridin-2-yl)-3-azabicyclo[3.1.0]hexan-3-yl)-2-hydroxyethan-1-one]
< 6	6 to 40	–	< 6	–	–	6 to 40	COc1cc2[nH]nc(-c3ccc(C4CCC(N(C)C(=O)CO)C4)nc3)c2nc1-c1cccc2c1CCC2 (single isomer, unassigned) [Example 155, N-(3-(5-(5-(2,3-Dihydro-1H-inden-4-yl)-6-methoxy-1H-pyrazolo[4,3-b]pyridin-3-yl)pyridin-2-yl)cyclopentyl)-2-hydroxy-N-methylacetamide]
< 6	6 to 40	–	< 6	–	–	6 to 40	COc1cc2[nH]nc(-c3cnn(C4CN(C(=O)[C@H]5C[C@H](O)C5)C4)c3)c2nc1-c1cccc2c1CCC2 [Example 125, (3-(4-(5-(2,3-Dihydro-1H-inden-4-yl)-6-methoxy-1H-pyrazolo[4,3-b]pyridin-3-yl)-1H-pyrazol-1-yl)azetidin-1-yl)((trans)-3-hydroxycyclobutyl)methanone]
< 6	6 to 40	–	< 6	–	–	6 to 40	COc1cc2[nH]nc(-c3cnn(C4CN(C(=O)C5(CO)CCC5)C4)c3)c2nc1-c1cccc2c1CCC2 [Example 139, (3-(4-(5-(2,3-Dihydro-1H-inden-4-yl)-6-methoxy-1H-pyrazolo[4,3-b]pyridin-3-yl)-1H-pyrazol-1-yl)azetidin-1-yl)(1-(hydroxymethyl)cyclobutyl)methanone]
